Patent US10953012B2, “Heterocyclic compounds for the inhibition of pask” (BioEnergenix LLC, priority 2011, dated 2021)

Legend:
CK2a2 = CK2a2 (Homo sapiens (Human), UniProt P19784); test: Biochemical Assay for CK2 Activity; conditions: 33P-ATP radiochemical assay; read-out: IC50 CK2 a2
Experimental: Biochemical Assay for CK2 Activity
Purified CK2a2 (NP_001887; human full-length protein, GST tagged) from insect cells (final concentration 1.2 nM) is added to freshly prepared Base Reaction Buffer containing 20 mM Hepes (pH 7.5), 10 mM MgCl2, 1 mM EGTA, 0.02% Brij35, 0.02 mg/ml BSA, 0.1 mM Na3VO4, 2 mM DTT, 1% DMSO and CK2 sub [RRRDDDSDDD] (20 μM final). Test compounds in DMSO are then added and the mixture, followed by delivery of ^33P-ATP (specific activity 0.01 μCi/μl final) to initiate the reaction. The kinase reaction is incubated for 120 min at room temperature. The entire reaction mixture is washed through onto a P81 Phosphocellulose paper and washed three times for 10 minutes in 75 mM phosphoric acid and once in methanol prior to drying and scintillation counting.

PASK [1] = target: PASK (UniProt #Q96RG2; residues 879-1323) (Homo sapiens (Human), UniProt Q96RG2); test: PASK ATP Radiochemical Assay; assay type: biochemical; conditions: 33P-ATP radiochemical assay; read-out: IC50 Kinase Domain
PASK (UniProt #Q96RG2; residues 879-1323) (Homo sapiens (Human), UniProt Q96RG2), sequence (Q96RG2 879-1323): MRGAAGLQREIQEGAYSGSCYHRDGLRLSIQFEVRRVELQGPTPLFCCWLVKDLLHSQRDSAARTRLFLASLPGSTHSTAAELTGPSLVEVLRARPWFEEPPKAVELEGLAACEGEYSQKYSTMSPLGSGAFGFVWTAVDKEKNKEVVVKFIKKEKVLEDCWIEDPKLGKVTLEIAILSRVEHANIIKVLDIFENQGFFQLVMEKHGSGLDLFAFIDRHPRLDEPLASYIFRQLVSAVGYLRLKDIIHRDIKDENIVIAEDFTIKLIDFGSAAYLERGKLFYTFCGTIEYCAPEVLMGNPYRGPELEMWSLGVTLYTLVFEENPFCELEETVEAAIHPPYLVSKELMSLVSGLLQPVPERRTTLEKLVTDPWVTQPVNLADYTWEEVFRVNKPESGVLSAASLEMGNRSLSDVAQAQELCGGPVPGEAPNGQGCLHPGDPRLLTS
Experimental: PASK ATP Radiochemical Assay Purified PASK (UniProt #Q96RG2; human recombinant N-terminal GST tagged construct, residues 879-1323) from insect cells (final concentration 5 nM) is added to freshly prepared Base Reaction Buffer containing 20 mM HEPES (pH 7.5), 10 mM MgCl2, 1 mM EGTA, 0.02% Brij35, 0.02 mg/ml BSA, 0.1 mM Na3VO4, 2 mM DTT, 1% DMSO and Myelin Basic Protein (20 μM final). Test compounds in DMSO are then added and the mixture, followed by delivery of ^33P-ATP (specific activity 0.01 μCi/μl final) to initiate the reaction. The kinase reaction is incubated for 120 min at room temperature. The entire reaction mixture is washed through onto a P81 Phosphocellulose paper and washed three times for 10 minutes in 75 mM phosphoric acid and once in methanol prior to drying and scintillation counting.

PASK [2] = target: PASK (Homo sapiens (Human), UniProt Q96RG2); test: PAS Kinase FRET Assay; assay type: biochemical; conditions: TR-FRET assay; read-out: IC50 Kinase Domain
PASK (Homo sapiens (Human), UniProt Q96RG2), sequence (Q96RG2 999-1251): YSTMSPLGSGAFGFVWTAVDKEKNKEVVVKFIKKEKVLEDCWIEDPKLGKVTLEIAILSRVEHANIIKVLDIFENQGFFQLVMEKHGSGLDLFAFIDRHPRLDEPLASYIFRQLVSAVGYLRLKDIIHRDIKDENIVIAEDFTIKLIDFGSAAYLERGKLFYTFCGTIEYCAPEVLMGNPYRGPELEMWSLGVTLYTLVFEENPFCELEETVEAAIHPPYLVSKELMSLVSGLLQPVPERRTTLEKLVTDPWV
Summary of the method: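 TR-FRET read-out (665/615 nm) of ULight-peptide phosphorylation by PASK, detected with Eu-labelled anti-phospho antibody. Compound, kinase and substrate/ATP reacted 2 h at 25 °C in the dark in 50 mM HEPES, 10 mM MgCl2, 1 mM EGTA, 0.01% Tween-20, 2 mM DTT. Eleven-point dilution series made at 4× final.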

CK2a2, sequence (P19784 whole entry): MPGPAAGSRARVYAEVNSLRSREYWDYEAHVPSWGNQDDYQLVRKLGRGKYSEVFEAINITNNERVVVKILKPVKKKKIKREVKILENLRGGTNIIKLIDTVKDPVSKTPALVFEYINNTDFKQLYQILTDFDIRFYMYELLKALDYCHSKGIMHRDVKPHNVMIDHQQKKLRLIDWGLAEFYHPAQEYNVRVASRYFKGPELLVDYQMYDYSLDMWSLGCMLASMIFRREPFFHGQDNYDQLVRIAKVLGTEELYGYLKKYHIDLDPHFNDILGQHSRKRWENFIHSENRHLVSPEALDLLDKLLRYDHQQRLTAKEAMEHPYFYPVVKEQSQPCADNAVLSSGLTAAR

Compound | IC50 (CK2a2) | IC50 (PASK [1]) | IC50 (PASK [2])
O=c1cc(-c2ccc3c(c2)CCO3)[nH]c2c(-c3cccnc3)c(O)nn12 [Example 130, 5-(2,3-Dihydrobenzofuran-5-yl)-2-hydroxy-3-(pyridin-3-yl)pyrazolo[1,5-a]pyrimidin-7(4H)-one] | ≤ 10 µM | ≤ 10 µM | ≤ 10 µM
O=c1cc(-c2ccc3occc3c2)[nH]c2c(-c3ccccn3)c(O)nn12 [Example 131, 5-(Benzofuran-5-yl)-2-hydroxy-3-(pyridin-2-yl)pyrazolo[1,5-a]pyrimidin-7(4H)-one] | ≤ 10 µM | ≤ 10 µM | ≤ 10 µM
O=c1cc(-c2ccc3c(c2)OCO3)[nH]c2c(Cc3ccccc3)cnn12 [Example 133, 5-(Benzo[d][1,3]dioxol-5-yl)-3-benzylpyrazolo[1,5-a]pyrimidin-7(4H)-one] | ≤ 10 µM | ≤ 10 µM | ≤ 10 µM
COc1ccccc1-c1cc(=O)n2ncc(-c3ccccn3)c2[nH]1 [Example 135, 5-(2-Methoxyphenyl)-3-(pyridin-2-yl)pyrazolo[1,5-a]pyrimidin-7(4H)-one] | ≤ 10 µM | ≤ 10 µM | ≤ 10 µM
CN(Cc1ccccc1)C(=O)c1cnn2c(=O)cc(-c3ccc4c(c3)OCCO4)[nH]c12 [Example 143, N-Benzyl-5-(2,3-dihydrobenzo[b][1,4]dioxin-6-yl)-N-methyl-7-oxo-4,7-dihydropyrazolo[1,5-a]pyrimidine-3-carboxamide] | ≤ 10 µM | ≤ 10 µM | ≤ 10 µM
CCCNC(=O)c1cnn2c(=O)cc(-c3ccc4c(c3)OCCO4)[nH]c12 [Example 145, 5-(2,3-Dihydrobenzo[b][1,4]dioxin-6-yl)-7-oxo-N-propyl-4,7-dihydropyrazolo[1,5-a]pyrimidine-3-carboxamide] | ≤ 10 µM | ≤ 10 µM | ≤ 10 µM
CC(=O)Nc1nn2c(=O)cc(-c3ccc4c(c3)OCO4)[nH]c2c1-c1ccccn1 [Example 155, N-(5-(Benzo[d][1,3]dioxol-5-yl)-7-oxo-3-(pyridin-2-yl)-4,7-dihydropyrazolo[1,5-a]pyrimidin-2-yl)acetamide] | ≤ 10 µM | ≤ 10 µM | ≤ 10 µM
CCNc1nn2c(=O)cc(-c3ccc4c(c3)OCO4)[nH]c2c1-c1ccccn1 [Example 156, 5-(Benzo[d][1,3]dioxol-5-yl)-2-(ethylamino)-3-(pyridin-2-yl)pyrazolo[1,5-a]pyrimidin-7(4H)-one] | ≤ 10 µM | ≤ 10 µM | ≤ 10 µM
O=c1cc(-c2ccc3c(c2)OC(F)(F)O3)[nH]c2c(-c3ccccn3)cnn12 [Example 158, 5-(2,2-Difluorobenzo[d][1,3]dioxol-5-yl)-3-(pyridin-2-yl)pyrazolo[1,5-a]pyrimidin-7(4H)-one] | ≤ 10 µM | ≤ 10 µM | ≤ 10 µM
O=c1cc(-c2ccc3[nH]ncc3c2)[nH]c2c(-c3ccccn3)cnn12 [Example 160, 5-(1H-Indazol-5-yl)-3-(pyridin-2-yl)pyrazolo[1,5-a]pyrimidin-7(4H)-one] | ≤ 10 µM | ≤ 10 µM | ≤ 10 µM
CCc1nn2c(=O)cc(-c3ccc4c(c3)OCO4)[nH]c2c1-c1ccccn1 [Example 161, 5-(Benzo[d][1,3]dioxol-5-yl)-2-ethyl-3-(pyridin-2-yl)pyrazolo[1,5-a]pyrimidin-7(4H)-one] | ≤ 10 µM | ≤ 10 µM | ≤ 10 µM
O=c1cc(-c2ccc3c(c2)OCO3)[nH]c2c(-c3ncccc3F)cnn12 [Example 164, 5-(Benzo[d][1,3]dioxol-5-yl)-3-(3-fluoropyridin-2-yl)pyrazolo[1,5-a]pyrimidin-7(4H)-one] | ≤ 10 µM | ≤ 10 µM | ≤ 10 µM
O=c1cc(-c2ccc3[nH]nnc3c2)[nH]c2c(-c3ccccn3)c(O)nn12 [Example 193, 5-(1H-Benzo[d][1,2,3]triazol-5-yl)-2-hydroxy-3-(pyridin-2-yl)pyrazolo[1,5-a]pyrimidin-7(4H)-one] | ≤ 10 µM | ≤ 10 µM | ≤ 10 µM
CCCNC(=O)c1c(N)nn2c(=O)cc(-c3ccc4c(cnn4C)c3)[nH]c12 [Example 197, 2-Amino-5-(1-methyl-1H-indazol-5-yl)-7-oxo-N-propyl-4,7-dihydropyrazolo[1,5-a]pyrimidine-3-carboxamide] | ≤ 10 µM | ≤ 10 µM | ≤ 10 µM
CCCNC(=O)c1c(N)nn2c(=O)cc(-c3ccc4[nH]ncc4c3)[nH]c12 [Example 198, 2-Amino-5-(1H-indazol-5-yl)-7-oxo-N-propyl-4,7-dihydropyrazolo[1,5-a]pyrimidine-3-carboxamide] | ≤ 10 µM | ≤ 10 µM | ≤ 10 µM

Next, values leading:

IC50 (CK2a2) | IC50 (PASK [1]) | IC50 (PASK [2]) | Compound
≥ 10 µM | ≤ 10 µM | ≤ 10 µM | O=c1cc(-c2ccc(F)cc2)[nH]c2c(-c3ccccn3)c(O)nn12 [Example 137, 5-(4-Fluorophenyl)-2-hydroxy-3-(pyridin-2-yl)pyrazolo[1,5-a]pyrimidin-7(4H)-one]
≤ 10 µM | ≤ 10 µM | ≤ 10 µM | Nc1nn2c(=O)cc(-c3ccc(Cl)cc3)[nH]c2c1-c1ccccc1 [Example 141, 2-Amino-5-(4-chlorophenyl)-3-phenylpyrazolo[1,5-a]pyrimidin-7(4H)-one]
≤ 10 µM | ≤ 10 µM | ≤ 10 µM | Nc1nn2c(=O)cc(-c3ccc4c(c3)OCCO4)[nH]c2c1-c1ccccc1 [Example 142, 2-Amino-5-(2,3-dihydrobenzo[b][1,4]dioxin-6-yl)-3-phenylpyrazolo[1,5-a]pyrimidin-7(4H)-one]
≤ 10 µM | ≤ 10 µM | ≤ 10 µM | O=C(NCc1ccccc1)c1cnn2c(=O)cc(-c3ccc(Cl)cc3)[nH]c12 [Example 144, N-Benzyl-5-(4-chlorophenyl)-7-oxo-4,7-dihydropyrazolo[1,5-a]pyrimidine-3-carboxamide]
≤ 10 µM | ≤ 10 µM | ≤ 10 µM | O=c1cc(-c2ccc3occc3c2)[nH]c2c(-c3cccnc3)c(O)nn12 [Example 147, 5-(Benzofuran-5-yl)-2-hydroxy-3-(pyridin-3-yl)pyrazolo[1,5-a]pyrimidin-7(4H)-one]
≤ 10 µM | ≤ 10 µM | ≤ 10 µM | Nc1nn2c(=O)cc(-c3ccc4c(c3)OCCO4)[nH]c2c1-c1ccccn1 [Example 148, 2-Amino-5-(2,3-dihydrobenzo[b][1,4]dioxin-6-yl)-3-(pyridin-2-yl)pyrazolo[1,5-a]pyrimidin-7(4H)-one]
≤ 10 µM | ≤ 10 µM | ≤ 10 µM | Nc1nn2c(=O)cc(-c3ccc4c(c3)OCO4)[nH]c2c1-c1ccccn1 [Example 150, 2-Amino-5-(benzo[d][1,3]dioxol-5-yl)-3-(pyridin-2-yl)pyrazolo[1,5-a]pyrimidin-7(4H)-one]
≤ 10 µM | ≤ 10 µM | ≤ 10 µM | Nc1nn2c(=O)cc(-c3ccc(Cl)cc3)[nH]c2c1-c1ccccn1 [Example 152, 2-Amino-5-(4-chlorophenyl)-3-(pyridin-2-yl)pyrazolo[1,5-a]pyrimidin-7(4H)-one]
≤ 10 µM | ≤ 10 µM | ≤ 10 µM | Nc1nn2c(=O)cc(-c3ccc4[nH]ncc4c3)[nH]c2c1-c1ccccn1 [Example 159, 2-Amino-5-(1H-indazol-5-yl)-3-(pyridin-2-yl)pyrazolo[1,5-a]pyrimidin-7(4H)-one]
≤ 10 µM | ≤ 10 µM | ≤ 10 µM | Nc1nn2c(=O)cc(-c3ccc(Cl)cc3F)[nH]c2c1-c1ccccn1 [Example 163, 2-Amino-5-(4-chloro-2-fluorophenyl)-3-(pyridin-2-yl)pyrazolo[1,5-a]pyrimidin-7(4H)-one]
≤ 10 µM | ≤ 10 µM | ≤ 10 µM | Nc1nn2c(=O)cc(-c3ccc(F)cc3)[nH]c2c1-c1ccccn1 [Example 171, 2-Amino-5-(4-fluorophenyl)-3-(pyridin-2-yl)pyrazolo[1,5-a]pyrimidin-7(4H)-one]
≤ 10 µM | ≤ 10 µM | ≤ 10 µM | Nc1nn2c(=O)cc(-c3ccc4[nH]nnc4c3)[nH]c2c1-c1ccccn1 [Example 191, 2-Amino-5-(1H-benzo[d][1,2,3]triazol-5-yl)-3-(pyridin-2-yl)pyrazolo[1,5-a]pyrimidin-7(4H)-one]
≤ 10 µM | ≤ 10 µM | ≤ 10 µM | Nc1nn2c(=O)cc(-c3ccc4[nH]nnc4c3)[nH]c2c1-c1ccccc1 [Example 199, 2-Amino-5-(1H-benzo[d][1,2,3]triazol-5-yl)-3-phenylpyrazolo[1,5-a]pyrimidin-7(4H)-one]
